Assay results as given in patent US8394781B2, “Disaccharides for the treatment of tendons, ligaments, and bones” (Bioiberica, S.A., priority 2007, dated 2013).

Test system: human tenocytes
Experiment: Human tenocyte adhesion and proliferation, in vitro culture, manual count in ten microscopic fields
Type: cell-based
Conditions: IGF-1 10 ng/mL, same increase reached after 9 hours, FIG. 2
Procedure: The objective was to determine the effect of compound Ic on human tenocyte proliferation and adhesion in an in vitro culture model, since a drug stimulating tenocyte proliferation and adhesion could be especially useful in the treatment or repair of tendons.
For comparison purposes, the effect of the growth factor IGF-1 on human tenocyte proliferation and adhesion in the same type of in vitro culture model was determined.
The increase of adhered tenocytes was quantified by means of manual count in ten microscopic fields.
Human tendon explants (of approximately 3-5 mm) were cultured in a culture flask with culture medium formed by 10% FCS, DMEM/Ham-12 (50/50) (Dulbecco's Modified Eagle's Medium with Ham-12), 50 IU/mL of penicillin/streptomycin, […] of ascorbic acid, 2.5 μg/mL of amphotericin B, 1% glutamine and 1% essential amino acids. […]
Twelve-well plates were prepared with 15,000 tenocytes/well and they were incubated with 10% FCS (fetal calf serum). On the following day, the cells were washed three times with serum-free culture medium (0.5% FCS) and were incubated for 30 minutes with serum-free culture medium, after which the control cultures were counted (time “0 hours”). […]
In all the assays, the cells were incubated for 71 hours and each well was evaluated in each time period by means of a manual count in 10 microscopic fields. […]

In the case of “IGF-1: growth factor IGF-1 (Insulin-like Growth Factor 1), used for comparison at 10 ng/mL”, the “increase in the number of adhered tenocytes with respect to the control” value was roughly 45%.
